Data on four compounds can be found in paper PMC12786457, “Studies on the Complexation of Platinum(II) by Some 4-Nitroisothiazoles and the Cytotoxic Activity of the Resulting Complexes” (Molecules, 2025).

The subject of series [1] is BALB/3T3 (mouse embryonic fibroblast). Briefly: SRB (sulforhodamine B) viability assay, normal cells BALB/3T3. It counts as cell-based. As to conditions: normoxia, read-out: IC50 ± SD, Normal Cells BALB/3T3, Normoxia. The method, then:
(§1) The cytotoxicity of the complexes C1–C5 was estimated by examining cell viability using the sulforhodamine B assay. […] However, due to the very poor solubility of the most polar complex C5 in acetone, its initial solution had to be prepared in polar N,N-dimethylacetamide (DMA) (see Section 3.7). Cisplatin was used as the reference drug. The results are presented as IC50 (50% inhibitory concentration), i.e., concentrations that reduce cell survival by 50%. The test was conducted on three cancer cell lines and one normal healthy cell line, namely, breast adenocarcinoma (MCF-7), ovarian adenocarcinoma (ES-2), lung adenocarcinoma (A549), and murine embryonic fibroblast (BALB/3T3).
(§2) Three solid tumor cell lines were used in this study: MCF-7 (breast adenocarcinoma), ES-2 (ovarian adenocarcinoma), and A549 (lung adenocarcinoma). The BALB/3T3 (mouse embryonic fibroblast) cell line was used as a comparative nonpathological tissue. All cell lines were purchased from the American Type Culture Collection (ATCC, Rockville, MD, USA). The preparation of cell cultures for cytotoxicity experiments is described in detail in the following article.
(§3) The initial solutions for subsequent dilutions in biological medium were prepared in a similar manner as described previously. […] The complex C5 was dissolved in the dimethylacetamide (DMA). All the initial solutions were prepared ex tempore and then were added to the culture medium 1:9 (v/v) to obtain a stock solution of 1 mg/mL.
(§4) The test was prepared and performed in the same manner as detailed in the following cited works.

Series [2] can be described thus: Reactivity with L-glutathione (GSH), UV photometry at 260 nm. It counts as in vitro ADME. Conditions: for Half-time, t1/2 of reaction with GSH: 2 mM GSH, 10 mmol/L NaCl, 10 mmol/L Tris x HCl pH 7.4, 37 °C, UV 260 nm. From the text: Deactivation of platinum anticancer drugs occurs in the organism at both systemic and intracellular levels. After intravenous administration, these drugs undergo a series of metabolic processes, and the concentration of their active forms can be reduced by various mechanisms. At the systemic level, the first step in deactivation is plasma protein binding: Platinum drugs rapidly bind to plasma proteins (over 90%), especially albumin [32]. […] At the cellular level, platinum drugs are neutralized by binding to intracellular proteins and peptides such as glutathione and metallothionein [33]. Binding to peptide and protein thiol and thioether moieties, which are the primary binding sites for such reactions, prevents the drug from reaching DNA and may be responsible for its nephrotoxicity. As in previous studies, we assessed the susceptibility of the tested compounds to this type of inactivation in the cancer tissues by measuring the half-life of the compound in an aqueous solution containing a physiological concentration of the reduced form of glutathione (GSH) using UV photometry at a wavelength of 260 nm similarly as in Hagrman et al.. Using the same methodology allowed us to directly compare the GHS reactivity of nitroisothiazole compounds with their pyrazole and isoxazole analogues. As a control, the UV spectra of complexes C1 and C2 in dioxane were recorded to check whether there was excessive absorption at a wavelength of 260 nm, which could interfere with the measurement of the reaction of the complexes with glutathione (visualization of the UV spectra can be found in the Supplementary Materials, Figures S46 and S47).
The experiment was conducted in a similar manner to that described in previous publications. First, 30 μL of 60 mM solution of the appropriate complex (cis C1, trans C2, trans C3 and trans C4) in purified and anhydrous distilled dioxane was mixed with 3 mL of a 2 mM solution of reduced L-glutathione (GSH) in an argon-saturated medium containing 10 mmol/L NaCl and 10 mmol/L Tris x HCl buffer, pH 7.4, to achieve a final concentration of 6 µM of the tested complexes. The measurement was carried out at 37 °C. The progress of the reaction was monitored by UV absorption spectrometry at a wavelength of 260 nm. Dioxane was used to dissolve the tested Pt complexes due to the lack of UV absorption of this solvent at the used wavelength. The GSH solution was saturated with argon to remove oxygen and thus prevent oxidation of GSH with the formation of S-S bonds, which would interfere with the measurement results.

A short description of series [3]: TLC Rf as a measure of relative lipophilicity. It counts as physicochemical. Conditions: silica gel TLC Al foils.
Series [4] relates to A549 (lung adenocarcinoma). Kind of series: SRB (sulforhodamine B) viability assay, A549. It counts as cell-based, human. Conditions: for IC50 / IC50 ± SD, A549 (Lung), Hypoxia: SRB assay. The method, then: as §1, §2, §3, §4
(In general: In SRB staining, fixed cells bind dye roughly in proportion to their protein.)

Series [5] relates to MCF-7 (breast adenocarcinoma). Briefly: SRB (sulforhodamine B) viability assay, MCF-7. It counts as cell-based, human. Conditions: for IC50: SRB assay. The method, then: as §1, §2, §3, §4
Series [6] concerns ES-2 (ovarian adenocarcinoma). Kind of series: SRB (sulforhodamine B) viability assay, ES-2. In kind it is cell-based, human. The method, then:
as §1, §2, §3, §4

Series [7] is described as follows: Solubility in solvents (qualitative). It counts as physicochemical.
Where [8] appears, read: normoxia, read-out: IC50 ± SD, A549 (Lung), Normoxia.
The mark [9] stands for this setting: hypoxia, read-out: IC50 ± SD, MCF-7 (Breast), Hypoxia.
[10] abbreviates: normoxia, read-out: IC50 ± SD, MCF-7 (Breast), Normoxia.
The mark [11] stands for this setting: hypoxia, read-out: IC50 ± SD, ES-2 (Ovarian), Hypoxia.
Where [12] appears, read: normoxia, read-out: IC50 ± SD, ES-2 (Ovarian), Normoxia.

Like-named read-outs stand apart in the source and are kept apart here.

On to `Cc1nscc1[N+](=O)[O-].Cc1nscc1[N+](=O)[O-].[Cl][Pt][Cl]` [C2, trans-Dichlorobis(3-methyl-4-nitroisothiazole)platinum(II)], for which the IC50 in series [1] was 1.14 ± 0.28 µM; in series [4] (hypoxia, read-out: IC50 ± SD, A549 (Lung), Hypoxia) it was 6.52 ± 2.28 µM; in series [4] (setting [8]), 6.34 ± 1.47 µM; in series [5] (setting [9]) it was 9.07 ± 5.07 µM; in series [5] (setting [10]), 6.16 ± 0.78 µM; in series [6] (setting [11]), 1.1 ± 0.34 µM. Moreover, in series [6] (setting [12]), the IC50 came to 2.14 ± 2.21 µM. For the same compound, the “Half-time, t1/2 of reaction with GSH” value in series [2] was ~29 min. The “reaction with GSH, times faster than oxaliplatin” value in series [2] (from half-times of Table 5) is on record as “about 1.5 times”. Besides, the “Rf, Eluent: Chlorofom:Acetone Ratio 9:7 Vol.” value in series [3] is given as 0.756. In addition, in series [4] (ratio of cytotoxicity towards healthy BALB/3T3 cells to cytotoxicity towards A549), the “selectivity index (SI), healthy cells vs A549” value came out at 0.2. For the same compound, in series [5] (ratio of cytotoxicity towards healthy BALB/3T3 cells to cytotoxicity towards MCF-7, normoxia), the “selectivity index (SI), healthy cells vs MCF-7” value is on record as “≈ 0.2”. The solubility in acetone result in series [7] was “weakly soluble”.
For the compound `COC(=O)c1snc(C)c1[N+](=O)[O-].COC(=O)c1snc(C)c1[N+](=O)[O-].[Cl][Pt][Cl]` [C4, trans-Dichlorobis(3-methyl-4-nitro-5-(methoxycarbonyl)isothiazole)platinum(II)], the IC50 is 5.99 ± 1.28 µM in series [1]; 40.3 ± 19.9 µM in series [4] (setting [8]); 7.68 ± 4.45 µM in series [5] (setting [9]); 6.94 ± 2.25 µM in series [5] (setting [10]); 5.44 ± 1.64 µM in series [6] (setting [11]); 3.89 ± 1.62 µM in series [6] (setting [12]). In addition, in series [2], the “Half-time, t1/2 of reaction with GSH” value was ~0.167 min. For the same compound, the “reaction with GSH, times faster than transplatin” value in series [2] (from half-times of Table 5) was 24 times. In series [3], the “Rf, Eluent: Chlorofom:Acetone Ratio 9:7 Vol.” value is 0.849. Also, the “IC50 ± SD, A549 (Lung), Hypoxia” value in series [4] (hypoxia) is “inactive”. Moreover, the solubility in acetone entry in series [7] is on record as “slightly soluble”. For the same compound, in series [7], the solubility in chloroform result is “very poorly soluble”.
In the case of `COC(=O)c1snc(C)c1[N+](=O)[O-].Cc1nscc1[N+](=O)[O-].[Cl][Pt][Cl]` [C3, trans-Dichloro-3-methyl-4-nitroisothiazole 3-Methyl-4-nitro-5-(methoxycarbonyl)isothiazole Platinum(II)], the IC50 in series [1] was 2.94 ± 3.06 µM; in series [4] (setting [8]), 5.74 ± 0.65 µM; in series [5] (setting [9]), 7.13 ± 1.93 µM; in series [5] (setting [10]), 5.25 ± 1.01 µM; in series [6] (setting [11]), 4.02 ± 2.47 µM; in series [6] (setting [12]), 3.9 ± 2.68 µM. Besides, the “Half-time, t1/2 of reaction with GSH” value in series [2] was “about 20 s”; in series [2] (listed as trans-complex C3), 0.333 min. The “reaction with GSH, times faster than transplatin” value in series [2] (from half-times of Table 5) turned out to be 12 times. For the same compound, the “Rf, Eluent: Chlorofom:Acetone Ratio 9:7 Vol.” value in series [3] was determined as 0.814. Moreover, the “IC50 ± SD, A549 (Lung), Hypoxia” value in series [4] (hypoxia) is “inactive”. Besides, the solubility in acetone entry in series [7] is “slightly soluble”. Also, in series [7], the solubility in chloroform entry is recorded as “very poorly soluble”.
On to “Dichlorobis(3-methyl-4-nitroisothiazole)platinum(II) [C1]”, for which the IC50 in series [1] worked out at 7.31 ± 0.82 µM; in series [4] (setting [8]) it was 31.4 ± 18.8 µM; in series [5] (setting [9]), 8.45 ± 2.25 µM; in series [5] (setting [10]) it was 4.59 ± 1.57 µM; in series [6] (setting [11]), 6.37 ± 1.69 µM; in series [6] (setting [12]) it was 7.29 ± 1.42 µM. The “Half-time, t1/2 of reaction with GSH” value in series [2] is “about 16 min”; in series [2] (listed as cis-complex C1), 16 min. Besides, the “reaction with GSH, times faster than cisplatin” value in series [2] (from half-times of Table 5) is “approximately three”. The “Rf, Eluent: Chlorofom:Acetone Ratio 9:7 Vol.” value in series [3] is on record as 0.442. Also, the “IC50 ± SD, A549 (Lung), Hypoxia” value in series [4] (hypoxia) was “inactive”.
